Test results reported in patent US20230126893A1, “[(1,4,5-TRISUBSTITUTED-1H-PYRAZOL-3-YL)SULFANYL]ACETIC ACID DERIVATIVES, SALTS THEREOF, AND USE THEREOF AS ACTIVE HERBICIDAL INGREDIENTS” (BAYER AKTIENGESELLSCHAFT, priority 2020, published 2023).

Columns and labels:
Format in all cases: in vivo
Setaria viridis [1] = assay: Post-emergence herbicidal effect against SETVI; conditions: 1280 g/ha, visual assessment about 3 weeks after treatment, 100% = plants have died, 0% = like control plants
How it was run: (§1)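 Activity scored visually as percent damage relative to untreated plants (100% = dead) roughly 3 weeks post-spray. Plants at the one-leaf stage, 2–3 weeks old in sandy loam under greenhouse conditions, received WP/EC formulations in 600–800 l/ha water plus 0.2% wetting agent.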

Alopecurus myosuroides [2] = assay: Post-emergence herbicidal effect against ALOMY; conditions: 1280 g/ha, visual score after about 3 weeks, 100% = plants have died, 0% = like control plants
How it was run: as §1

Poa annua [3] = assay: Pre-emergence herbicidal effect against POAAN; conditions: 1280 g/ha, visual score after 3 weeks, 100% = plants have died, 0% = like control plants
How it was run: (§2)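 Visual rating against untreated controls after 3 weeks in greenhouse, from 0% (no difference) to 100% (dead plants). Compound, as WP or EC with 0.2% wetting agent in 600 to 800 L/ha water, applied to covering soil over seeds sown in sandy loam.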

Abutylon threophrasti [4] = assay: Pre-emergence herbicidal effect against ABUTH; conditions: 1280 g/ha, visual score after 3 weeks, 100% = plants have died, 0% = like control plants
Description: (§3) 1. Pre-emergence herbicidal effect and crop plant compatibility Seeds of monocotyledonous and dicotyledonous weed plants and crop plants are laid out in sandy loam soil in wood-fibre pots and covered with soil. The compounds of the invention, formulated in the form of wettable powders (WP) or as emulsion concentrates (EC), are then applied to the surface of the covering soil as aqueous suspension or emulsion at a water application rate equating to 600 to 800 L/ha with addition of 0.2% wetting agent. After the treatment, the pots are placed in a greenhouse and kept under good growth conditions for the trial plants. The damage to the test plants is scored visually after a test period of 3 weeks by comparison with untreated controls (herbicidal activity in percent (%): 100% activity=the plants have died, 0% activity=like control plants). [table]

Veronica persica [5] = assay: Pre-emergence herbicidal effect against VERPE; conditions: 1280 g/ha, visual score after 3 weeks, 100% = plants have died, 0% = like control plants
How it was run: as §2

Setaria viridis [6] = assay: Pre-emergence herbicidal effect against SETVI; conditions: 1280 g/ha, visual score after 3 weeks, 100% = plants have died, 0% = like control plants
How it was run: as §2

Echinochloa crus-galli [7] = assay: Post-emergence herbicidal effect against ECHCG; conditions: 1280 g/ha, visual score after about 3 weeks, 100% = plants have died, 0% = like control plants
How it was run: as §1

[8] = system: Tripleurospermum inodorum; assay: Pre-emergence herbicidal effect against MATIN; conditions: 1280 g/ha, visual score after 3 weeks, 100% = plants have died, 0% = like control plants
How it was run: as §2

Bassia scoparia [9] = assay: Post-emergence herbicidal effect against KCHSC; conditions: 1280 g/ha, visual assessment about 3 weeks after treatment, 100% = plants have died, 0% = like control plants
How it was run: as §1

Stellaria media [10] = assay: Post-emergence herbicidal effect against STEME; conditions: 1280 g/ha, visual assessment about 3 weeks after treatment, 100% = plants have died, 0% = like control plants
How it was run: as §1

Lolium rigidum = assay: Pre-emergence herbicidal effect against LOLRI; conditions: 1280 g/ha, visual score after 3 weeks, 100% = plants have died, 0% = like control plants
How it was run: as §2

Alopecurus myosuroides [11] = assay: Pre-emergence herbicidal effect against ALOMY; conditions: 1280 g/ha, visual score after 3 weeks, 100% = plants have died, 0% = like control plants
How it was run: as §2

Poa annua [12] = assay: Post-emergence herbicidal effect against POAAN; conditions: 1280 g/ha, visual assessment about 3 weeks after treatment, 100% = plants have died, 0% = like control plants
How it was run: as §1

[13] = system: Tripleurospermum inodorum; assay: Post-emergence herbicidal effect against MATIN; conditions: 1280 g/ha, visual assessment about 3 weeks after treatment, 100% = plants have died, 0% = like control plants
How it was run: as §1

Veronica persica [14] = assay: Post-emergence herbicidal effect against VERPE; conditions: 1280 g/ha, visual assessment about 3 weeks after treatment, 100% = plants have died, 0% = like control plants
How it was run: as §1

Stellaria media [15] = assay: Pre-emergence herbicidal effect against STEME; conditions: 1280 g/ha, visual score after 3 weeks, 100% = plants have died, 0% = like control plants
How it was run: as §2

Echinochloa crus-galli [16] = assay: Pre-emergence herbicidal effect against ECHCG; conditions: 1280 g/ha, visual score after 3 weeks, 100% = plants have died, 0% = like control plants
How it was run: as §2

Abutylon threophrasti [17] = assay: Post-emergence herbicidal effect against ABUTH; conditions: 1280 g/ha, visual assessment about 3 weeks after treatment, 100% = plants have died, 0% = like control plants
How it was run: as §1

Digitaria sanguinalis [18] = assay: Pre-emergence herbicidal effect against DIGSA; conditions: 1280 g/ha, visual score after 3 weeks, 100% = plants have died, 0% = like control plants
How it was run: as §2

Amaranthus retroflexus [19] = assay: Post-emergence herbicidal effect against AMARE; conditions: 1280 g/ha, visual assessment about 3 weeks after treatment, 100% = plants have died, 0% = like control plants
Experimental: [table] 2. Post-emergence herbicidal effect and crop plant compatibility Seeds of monocotyledonous and dicotyledonous weed and crop plants are laid out in sandy loam soil in wood-fibre pots, covered with soil and cultivated in a greenhouse under good growth conditions. 2 to 3 weeks after sowing, the test plants are treated at the one-leaf stage. The compounds of the invention, formulated in the form of wettable powders (WP) or as emulsion concentrates (EC), are then sprayed onto the green parts of the plants as aqueous suspension or emulsion at a water application rate equating to 600 to 800 l/ha with addition of 0.2% wetting agent. After the test plants have been left to stand in the greenhouse under optimal growth conditions for about 3 weeks, the action of the preparations is assessed visually in comparison to untreated controls (herbicidal action in percent (%): 100% activity=the plants have died, 0% activity=like control plants).

Amaranthus retroflexus [20] = assay: Pre-emergence herbicidal effect against AMARE; conditions: 1280 g/ha, visual score after 3 weeks, 100% = plants have died, 0% = like control plants
How it was run: as §2

Digitaria sanguinalis [21] = assay: Post-emergence herbicidal effect against DIGSA; conditions: 1280 g/ha, visual score after about 3 weeks, 100% = plants have died, 0% = like control plants
How it was run: as §1

Bassia scoparia [22] = assay: Pre-emergence herbicidal effect against KCHSC; conditions: 1280 g/ha, visual score after 3 weeks, 100% = plants have died, 0% = like control plants
Description: as §3

Row | Compound | Post-emergence action against SETVI (Setaria viridis [1]) [%] | Post-emergence action against ALOMY (Alopecurus myosuroides [2]) [%] | Pre-emergence action against POAAN (Poa annua [3]) [%] | Pre-emergence action against ABUTH (Abutylon threophrasti [4]) [%] | Pre-emergence action against VERPE (Veronica persica [5]) [%] | Pre-emergence action against SETVI (Setaria viridis [6]) [%] | Post-emergence action against ECHCG (Echinochloa crus-galli [7]) [%] | Pre-emergence action against MATIN [8] [%] | Post-emergence action against KCHSC (Bassia scoparia [9]) [%] | Post-emergence action against STEME (Stellaria media [10]) [%] | Pre-emergence action against LOLRI (Lolium rigidum) [%] | Pre-emergence action against ALOMY (Alopecurus myosuroides [11]) [%] | Post-emergence action against POAAN (Poa annua [12]) [%] | Post-emergence action against MATIN [13] [%] | Post-emergence action against VERPE (Veronica persica [14]) [%] | Pre-emergence action against STEME (Stellaria media [15]) [%] | Pre-emergence action against ECHCG (Echinochloa crus-galli [16]) [%] | Post-emergence action against ABUTH (Abutylon threophrasti [17]) [%] | Pre-emergence action against DIGSA (Digitaria sanguinalis [18]) [%] | Pre-emergence action against KCHSC (Bassia scoparia [22]) [%] | further results
1 | COC(=O)CNC(=O)CSc1nn(-c2ccccc2F)c(-c2cncc(F)c2)c1Br [VII-009] | 90 | 90 | 100 | 90 | 100 | 100 | 90 | 100 | 90 | 100 | 100 | 90 | 100 | 90 | 90 | 100 | 90 | 90 |  |  | 
2 | CCOC(=O)CSc1nn(-c2ccccc2F)c(-c2cncc(Cl)c2)c1Br [II-007] | 90 | 100 | 100 | 90 | 100 | 100 | 100 | 100 |  | 100 | 100 | 100 | 100 | 100 | 100 | 100 | 100 | 90 | 100 | 100 | Post-emergence action against AMARE (Amaranthus retroflexus [19]): 100%; Pre-emergence action against AMARE (Amaranthus retroflexus [20]): 100%; Post-emergence action against DIGSA (Digitaria sanguinalis [21]): 100%
3 | CCOC(=O)C[S+]([O-])c1nn(-c2ccccc2F)c(-c2cncc(Cl)c2)c1Br (stereo not drawn) [II-013] | 90 |  | 100 | 90 | 100 | 100 | 100 | 100 | 90 | 100 | 100 | 100 | 100 | 100 | 100 | 100 | 100 | 100 | 100 | 90 | Post-emergence action against AMARE (Amaranthus retroflexus [19]): 90%; Pre-emergence action against AMARE (Amaranthus retroflexus [20]): 100%
4 | CCOC(=O)CSc1nn(-c2cc(F)ccc2F)c(-c2ccc(F)c(F)c2)c1Br [Example I-013] |  | 100 | 100 |  | 100 | 100 |  | 100 | 90 | 100 | 100 | 100 | 100 | 100 | 100 | 100 | 100 | 90 | 100 | 90 | Post-emergence action against AMARE (Amaranthus retroflexus [19]): 100%; Pre-emergence action against AMARE (Amaranthus retroflexus [20]): 100%; Post-emergence action against DIGSA (Digitaria sanguinalis [21]): 100%
5 | CCOC(=O)CSc1nn(-c2ccc(F)cc2)c(-c2ccc(F)cc2)c1Br [Example I-019] | 90 | 100 | 100 | 90 | 100 | 100 |  | 100 | 100 | 90 |  | 90 | 100 | 100 | 100 | 90 | 100 | 100 | 100 | 100 | Post-emergence action against DIGSA (Digitaria sanguinalis [21]): 100%
6 | CCOC(=O)C[S+]([O-])c1nn(-c2ccccc2F)c(-c2cncc(F)c2)c1Br (stereo not drawn) [II-011] | 100 | 100 | 100 | 90 | 100 | 100 | 100 | 100 | 100 | 100 | 100 | 100 | 100 | 90 | 90 | 100 | 100 | 90 | 100 | 100 | Post-emergence action against AMARE (Amaranthus retroflexus [19]): 90%; Pre-emergence action against AMARE (Amaranthus retroflexus [20]): 100%; Post-emergence action against DIGSA (Digitaria sanguinalis [21]): 100%
